Source: ChEMBL document CHEMBL1148913, “Celogenamide A, a new cyclic peptide from the seeds of Celosia argentea” (J Nat Prod, 2004)

assay: Inhibition of tubulin polymerization assessed as turbidity by microtubule assembly assay

Row | IC50 | SMILES
1 | > 100 µM | COC(=O)[C@@H]1Cc2cn(c3ccccc23)[C@@H](NC(=O)[C@H](Cc2ccc(O)cc2)NC(=O)[C@@H]2CCCN2C(=O)[C@@H]2CCC(=O)N2)C(=O)N[C@@H](C(C)C)C(=O)NCC(=O)N[C@@H](CO)C(=O)N1 [LYCLUMIN A]
2 | > 100 µM | COC(=O)[C@@H]1Cc2cn(c3ccccc23)[C@@H](NC(=O)[C@H](Cc2ccc(O)cc2)NC(=O)[C@@H]2CCCN2C(=O)[C@@H]2CCC(=O)N2)C(=O)N[C@@H](C(C)C)C(=O)N[C@@H](Cc2ccccc2)C(=O)N[C@@H](CO)C(=O)N1 [LYCIUMIN C]
3 | > 100 µM | CC(C)[C@@H]1NC(=O)[C@H](NC(=O)[C@H](Cc2ccc(O)cc2)NC(=O)[C@@H]2CCCN2C(=O)[C@@H]2CCC(=O)N2)n2cc(c3ccccc32)C[C@@H](C(=O)N[C@@H](CCCCN)C(=O)O)NC(=O)[C@H](CO)NC(=O)[C@H](Cc2ccccc2)NC1=O [CELOGENAMIDE A]
